Results taken from ChEMBL document CHEMBL2203207, “Inhibition of monoamine oxidase by derivatives of piperine, an alkaloid from the pepper plant Piper nigrum, for possible use in Parkinson's disease” (Bioorg Med Chem Lett, 2012).

Experiments:
[1] = target: T1, Amine oxidase [flavin-containing] B (Homo sapiens, UniProt P27338); experiment: Inhibition of MAO-B assessed as inhibition of kyneuramine conversion to 4-hydroxyquinoline after 20 mins by fluorescence assay
T1 sequence (P27338 whole entry): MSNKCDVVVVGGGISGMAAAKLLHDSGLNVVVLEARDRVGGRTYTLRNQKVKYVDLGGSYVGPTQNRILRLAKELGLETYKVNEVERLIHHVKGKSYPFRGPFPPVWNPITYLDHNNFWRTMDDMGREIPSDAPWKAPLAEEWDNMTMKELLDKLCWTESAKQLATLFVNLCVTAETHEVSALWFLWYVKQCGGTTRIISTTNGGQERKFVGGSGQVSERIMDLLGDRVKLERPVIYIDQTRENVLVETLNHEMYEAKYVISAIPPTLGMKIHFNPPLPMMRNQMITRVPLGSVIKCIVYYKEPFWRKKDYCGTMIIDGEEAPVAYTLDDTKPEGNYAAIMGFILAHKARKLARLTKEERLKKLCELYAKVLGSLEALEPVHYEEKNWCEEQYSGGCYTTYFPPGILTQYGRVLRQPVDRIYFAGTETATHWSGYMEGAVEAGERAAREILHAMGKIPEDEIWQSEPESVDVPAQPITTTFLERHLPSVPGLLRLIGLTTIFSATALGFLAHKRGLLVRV

[2] = target: T2, Amine oxidase [flavin-containing] A (Homo sapiens, UniProt P21397); experiment: Inhibition of MAO-A assessed as inhibition of kyneuramine conversion to 4-hydroxyquinoline after 20 mins by fluorescence assay
T2 sequence (P21397 whole entry): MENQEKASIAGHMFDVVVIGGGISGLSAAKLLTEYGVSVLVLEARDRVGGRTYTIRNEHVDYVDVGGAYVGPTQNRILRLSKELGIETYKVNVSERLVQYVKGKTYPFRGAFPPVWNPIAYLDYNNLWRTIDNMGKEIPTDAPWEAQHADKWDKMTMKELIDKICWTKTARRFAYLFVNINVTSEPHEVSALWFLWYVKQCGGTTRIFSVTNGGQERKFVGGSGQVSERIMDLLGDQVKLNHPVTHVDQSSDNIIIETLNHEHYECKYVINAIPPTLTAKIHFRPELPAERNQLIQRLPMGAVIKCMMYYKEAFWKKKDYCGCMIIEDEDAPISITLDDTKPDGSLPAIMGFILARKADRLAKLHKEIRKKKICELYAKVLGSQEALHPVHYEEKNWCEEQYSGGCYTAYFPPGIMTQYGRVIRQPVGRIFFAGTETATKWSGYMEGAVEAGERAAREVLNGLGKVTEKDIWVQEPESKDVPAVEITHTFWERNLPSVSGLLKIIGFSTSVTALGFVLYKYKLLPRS

[3] = target: T3, Albumin (Bos taurus, UniProt P02769); experiment: Binding affinity to bovine serum albumin at 16 uM by fluorescence assay; type: ADME; conditions: cattle, isolated protein
T3 sequence (P02769 whole entry): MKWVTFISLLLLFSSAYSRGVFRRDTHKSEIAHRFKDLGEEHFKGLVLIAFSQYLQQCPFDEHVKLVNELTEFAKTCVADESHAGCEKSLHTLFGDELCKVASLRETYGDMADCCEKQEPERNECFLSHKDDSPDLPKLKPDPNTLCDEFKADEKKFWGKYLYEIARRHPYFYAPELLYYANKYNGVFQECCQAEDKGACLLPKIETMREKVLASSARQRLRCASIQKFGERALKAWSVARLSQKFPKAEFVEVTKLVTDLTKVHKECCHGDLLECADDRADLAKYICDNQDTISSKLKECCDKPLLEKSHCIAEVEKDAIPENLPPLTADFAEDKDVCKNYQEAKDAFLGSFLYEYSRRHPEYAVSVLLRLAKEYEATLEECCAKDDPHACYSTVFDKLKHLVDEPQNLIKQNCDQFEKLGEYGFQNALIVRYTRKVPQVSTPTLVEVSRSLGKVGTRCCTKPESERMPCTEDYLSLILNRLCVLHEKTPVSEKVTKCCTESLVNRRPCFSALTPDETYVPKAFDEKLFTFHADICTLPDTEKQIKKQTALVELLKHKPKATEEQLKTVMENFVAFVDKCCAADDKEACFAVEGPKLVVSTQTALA

[4] = target: T3, Albumin; experiment: Binding affinity to bovine serum albumin at 8.9 uM by fluorescence assay; type: ADME; conditions: cattle, isolated protein

IC50 [1] | IC50 [2] | Activity [3] | Activity [4] | Structure (SMILES)
6.39 µM | > 100 µM |  |  | O=C(/C=C/c1ccc2c(c1)OCO2)N1CCOCC1
15.4 µM | > 100 µM |  |  | S=C(c1ccc2c(c1)OCO2)N1CCCCC1
1.13 µM | > 100 µM |  |  | O=C(/C=C/c1ccc2c(c1)OCO2)NC1CCCC1
3.43 µM | > 100 µM |  |  | O=C(CCN1CCCCC1)c1ccc2c(c1)OCO2
0.666 µM | > 100 µM |  |  | O=C(/C=C/c1ccc2c(c1)OCO2)NC1CCCCC1
0.497 µM | > 100 µM | 50% |  | CC1CCN(C(=O)/C=C/c2ccc3c(c2)OCO3)CC1
4.89 µM | > 100 µM |  |  | O=C(/C=C/c1ccc2c(c1)OCO2)N1CCCC1
> 100 µM | > 100 µM |  |  | O=C(c1ccc2c(c1)OCO2)N1CCCCCC1
0.483 µM | 59 µM |  | 50% | O=C(/C=C/C=C/c1ccc2c(c1)OCO2)N1CCCCC1 [PIPERINE]

Structure (SMILES) | IC50 [1] | IC50 [2] | Activity [3] | Activity [4]
O=C(CN1CCCCC1)c1ccc2c(c1)OCO2 | 3.18 µM | > 100 µM |  | 
